# Data from US20230312587A1, “PTERIDINONE COMPOUNDS AND USES THEREOF” (Vertex Pharmaceutical Incorporated, priority 2018, published 2023).
# Test system: β-catenin-TCF-mediated reporter transcription activity in Colo 205 cells
# Assay: Colo 205 reporter assay (TCF/LEF luciferase)
# Type: cell-based
# Settings: Colo 205 cells with stably transfected TCF/LEF luciferase reporter; five hours after addition of compound; read-out: TCF reporter Colo205
# In short: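 Luciferase signal from a TCF/LEF-driven reporter, stably integrated in Colo 205 colon cancer cells, was measured 5 h after compound addition.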
row,IC50 [nM],SMILES
1,≥ 5000,"CC(=O)NCCCC[C@H](N)C(=O)N(Cc1cnn(Cc2ccc(C(F)(F)F)nc2)c1)c1nc(C)c2c(n1)N(C)[C@@H](C)C(=O)N2 [Compound 404, (7S)-6-acetamido-2-amino-N-((1-((6-(trifluoromethyl)pyridin-3-yl)methyl)-1H-pyrazol-4-yl)methyl)-N-((S)-4,7,8-trimethyl-6-oxo-5,6,7,8-tetrahydropteridin-2-yl)hexanamide]"

# Same assay, conditions: Homo sapiens, COLO 205, 5 h, Colo 205 TCF/LEF luciferase reporter, five hours after addition of compound; read-out: TCF reporter Colo205 IC50
row,IC50 [nM],SMILES
1,300 to 1000,"COc1cc(O[C@H]2C[C@H](Nc3nc(C)c4c(n3)N(C)[C@@H](C)C(=O)N4C)C2)ccc1F [Compound 373, (7S)-2-((trans-3-(4-fluoro-3-methoxyphenoxy)cyclobutyl)amino)-4,5,7,8-tetramethyl-7,8-dihydropteridin-6(5H)-one]"
2,≥ 5000,"Cc1nc(N[C@H]2CCN(Cc3ccc(F)cc3)C2)nc2c1NC(=O)[C@H](C)N2C [Compound 374, (7S)-2-(((S)-1-(4-fluorobenzyl)pyrrolidin-3-yl)amino)-4,7,8-trimethyl-7,8-dihydropteridin-6(5H)-one]"
3,300 to 1000,"Cc1nc(N[C@H]2C[C@H](Oc3cc(F)c(F)c(F)c3)C2)nc2c1N(CCF)C(=O)[C@H](C)N2C [Compound 381, (7S)-5-(2-fluoroethyl)-4,7,8-trimethyl-2-((trans-3-(3,4,5-trifluorophenoxy)-cyclobutyl)-amino)-7,8-dihydropteridin-6(5H)-one]"
4,< 300,"Cc1nc(NCc2cnn(C(C)c3ccc(F)cc3)c2)nc2c1NC(=O)[C@H](C)N2C (stereo partly drawn) [Compound 382, (7S)-2-(((1-(1-(4-fluorophenyl)ethyl)-1H-pyrazol-4-yl)methyl)amino)-4,7,8-trimethyl-7,8-dihydropteridin-6(5H)-one]"
5,< 300,"C=C(C)c1nc(C(F)(F)F)ccc1Cn1cc(CNc2nc(C)c3c(n2)N(C)[C@@H](C)C(=O)N3)cn1 [Compound 387, (7S)-4,7,8-Trimethyl-2-(((1-((2-(prop-1-en-2-yl)-6-(trifluoromethyl)pyridin-3-yl)methyl)-1H-pyrazol-4-yl)methyl)amino)-7,8-dihydropteridin-6(5H)-one]"
6,< 300,"CC[C@H]1C(=O)Nc2c(C)nc(NCc3cnn(Cc4ccc(F)nc4)c3)nc2N1C [Compound 389, (7S)-7-Ethyl-2-(((1-((6-fluoropyridin-3-yl)methyl)-1H-pyrazol-4-yl)methyl)amino)-4,8-dimethyl-7,8-dihydropteridin-6(5H)-one]"
7,< 300,"Cc1nc(NCc2cnn(Cc3ccc(OCC(F)(F)F)nc3)c2)nc2c1NC(=O)[C@H](C)N2C [Compound 390, (7S)-4,7,8-trimethyl-2-(((1-((6-(2,2,2-trifluoroethoxy)pyridin-3-yl)methyl)-1H-pyrazol-4-yl)methyl)amino)-7,8-dihydropteridin-6(5H)-one]"
8,< 300,"CC[C@H]1C(=O)Nc2c(C)nc(NCc3cnn(Cc4cnc(F)c(OC)c4)c3)nc2N1C [Compound 394, (7S)-7-Ethyl-2-(((1-((6-fluoro-5-methoxypyridin-3-yl)methyl)-1H-pyrazol-4-yl)methyl)amino)-4,8-dimethyl-7,8-dihydropteridin-6(5H)-one]"
9,< 300,"CC(=O)c1nc(C(F)(F)F)ccc1Cn1cc(CNc2nc(C)c3c(n2)N(C)[C@@H](C)C(=O)N3)cn1 [Compound 413, (7S)-2-(((1-((2-acetyl-6-(trifluoromethyl)pyridin-3-yl)methyl)-1H-pyrazol-4-yl)methyl)amino)-4,7,8-trimethyl-7,8-dihydropteridin-6(5H)-one]"
10,< 300,"Cc1nc(NCc2cnn(Cc3ccc(Cl)nc3)c2)nc2c1NC(=O)[C@H](C(C)C)N2C [Compound 414, (7S)-2-(((1-((6-chloropyridin-3-yl)methyl)-1H-pyrazol-4-yl)methyl)amino)-7-isopropyl-4,8-dimethyl-7,8-dihydropteridin-6(5H)-one]"

# The remaining lines, values behind:
row,SMILES,IC50 [nM]
1,"Cc1nc(N[C@H]2C[C@H](Oc3ccc(OC(F)F)nc3)C2)nc2c1NC(=O)[C@H](C)N2C [Compound 361, (7S)-2-((trans-3-((6-(difluoromethoxy)pyridin-3-yl)oxy)cyclobutyl)amino)-4,7,8-trimethyl-7,8-dihydropteridin-6(5H)-one]",< 300
2,"Cc1nc(N[C@H]2C[C@H](Oc3ccc(OC(F)F)nc3)C2)nc2c1N(C)C(=O)[C@H](C)N2C [Compound 362, (7S)-2-((trans-3-((6-(difluoromethoxy)pyridin-3-yl)oxy)cyclobutyl)amino)-4,5,7,8-tetramethyl-7,8-dihydropteridin-6(5H)-one]",300 to 1000
3,"Cc1nc(N[C@H]2C[C@@H](COc3cncc(C(F)(F)F)c3)C2)nc2c1NC(=O)[C@H](C)N2C [Compound 363, (7S)-4,7,8-trimethyl-2-((cis-3-(((5-(trifluoromethyl)pyridin-3-yl)oxy)methyl)cyclobutyl)amino)-7,8-dihydropteridin-6(5H)-one]",< 300
4,"Cc1nc(N[C@H]2C[C@@H](COc3ccc(C(F)(F)F)nc3)C2)nc2c1NC(=O)[C@H](C)N2C [Compound 364, (7S)-4,7,8-trimethyl-2-((cis-3-(((6-(trifluoromethyl)pyridin-3-yl)oxy)methyl)cyclobutyl)amino)-7,8-dihydropteridin-6(5H)-one]",< 300
5,"Cc1cc(C(F)(F)F)cc(OC[C@H]2C[C@@H](Nc3nc(C)c4c(n3)N(C)[C@@H](C)C(=O)N4)C2)n1 [Compound 365, (7S)-4,7,8-trimethyl-2-((cis-3-(((6-methyl-4-(trifluoromethyl)pyridin-2-yl)oxy)methyl)cyclobutyl)amino)-7,8-dihydropteridin-6(5H)-one]",< 300
6,"Cc1nc(N[C@H]2C[C@@H](COc3cncc(Cl)c3)C2)nc2c1NC(=O)[C@H](C)N2C [Compound 366, (7S)-2-((cis-3-(((5-chloropyridin-3-yl)oxy)methyl)cyclobutyl)amino)-4,7,8-trimethyl-7,8-dihydropteridin-6(5H)-one]",< 300
7,"Cc1nc(N[C@H]2C[C@@H](COc3cnc(Cl)c(F)c3)C2)nc2c1NC(=O)[C@H](C)N2C [Compound 367, (7S)-2-((cis-3-(((6-chloro-5-fluoropyridin-3-yl)oxy)methyl)cyclobutyl)amino)-4,7,8-trimethyl-7,8-dihydropteridin-6(5H)-one]",< 300
8,"Cc1nc(N[C@H]2C[C@H](COc3cc(C(F)(F)F)ccn3)C2)nc2c1NC(=O)[C@H](C)N2C [Compound 369, (7S)-4,7,8-trimethyl-2-((trans-3-(((4-(trifluoromethyl)pyridin-2-yl)oxy)methyl)cyclobutyl)amino)-7,8-dihydropteridin-6(5H)-one]",≥ 5000
9,"COc1cc(O[C@H]2C[C@H](Nc3nc(C)c4c(n3)N(C)[C@@H](C)C(=O)N4)C2)ccc1F [Compound 370, (7S)-2-((trans-3-(4-fluoro-3-methoxyphenoxy)cyclobutyl)amino)-4,7,8-trimethyl-7,8-dihydropteridin-6(5H)-one]",< 300
10,"Cc1nc(N[C@H]2CCN(Cc3ccccc3)C2)nc2c1NC(=O)[C@H](C)N2C [Compound 371, (7S)-2-(((S)-1-benzylpyrrolidin-3-yl)amino)-4,7,8-trimethyl-7,8-dihydropteridin-6(5H)-one]",≥ 5000
11,"Cc1nc(N[C@@H]2CCN(Cc3ccccc3)C2)nc2c1NC(=O)[C@H](C)N2C [Compound 372, (7S)-2-(((R)-1-benzylpyrrolidin-3-yl)amino)-4,7,8-trimethyl-7,8-dihydropteridin-6(5H)-one]",≥ 5000

# Same assay, conditions: Homo sapiens, COLO 205, 5 h, Colo 205 cells with stably transfected TCF/LEF luciferase reporter; five hours after addition of compound; read-out: TCF reporter Colo205
row,IC50 [nM],SMILES
1,< 300,"[2H]C([2H])([2H])N1c2nc(NCc3cnn(Cc4ccc(C(F)(F)F)nc4)c3)nc(C)c2NC(=O)[C@@H]1C [Compound 400, (7S)-4,7-dimethyl-8-(methyl-d3)-2-(((1-((6-(trifluoromethyl)pyridin-3-yl)methyl)-1H-pyrazol-4-yl)methyl)amino)-7,8-dihydropteridin-6(5H)-one]"
2,≥ 5000,"Cc1nc(N(Cc2cnn(Cc3ccc(C(F)(F)F)nc3)c2)C(=O)NC2CCCCC2)nc2c1NC(=O)[C@H](C)N2C [Compound 401, (7S)-3-cyclohexyl-1-((1-((6-(trifluoromethyl)pyridin-3-yl)methyl)-1H-pyrazol-4-yl)methyl)-1-(4,7,8-trimethyl-6-oxo-5,6,7,8-tetrahydropteridin-2-yl)urea]"
3,≥ 5000,"Cc1nc(N(Cc2cnn(Cc3ccc(C(F)(F)F)nc3)c2)C(=O)[C@@H](N)C(C)C)nc2c1NC(=O)[C@H](C)N2C [Compound 402, (S)-2-amino-3-methyl-N-((1-((6-(trifluoromethyl)pyridin-3-yl)methyl)-1H-pyrazol-4-yl)methyl)-N-((S)-4,7,8-trimethyl-6-oxo-5,6,7,8-tetrahydropteridin-2-yl)butanamide]"
4,≥ 5000,"Cc1nc(N(Cc2cnn(Cc3ccc(C(F)(F)F)nc3)c2)C(=O)CN)nc2c1NC(=O)[C@H](C)N2C [Compound 406, (7S)-2-amino-N-((1-((6-(trifluoromethyl)pyridin-3-yl)methyl)-1H-pyrazol-4-yl)methyl)-N-(4,7,8-trimethyl-6-oxo-5,6,7,8-tetrahydropteridin-2-yl)acetamide]"
5,≥ 5000,"COC(=O)N(Cc1cnn(Cc2ccc(C(F)(F)F)nc2)c1)c1nc(C)c2c(n1)N(C)[C@@H](C)C(=O)N2 [Compound 407, methyl (7S)-((1-((6-(trifluoromethyl)pyridin-3-yl)methyl)-1H-pyrazol-4-yl)methyl)(4,7,8-trimethyl-6-oxo-5,6,7,8-tetrahydropteridin-2-yl)carbamate]"
6,< 300,"Cc1nc(N(Cc2cnn(Cc3ccc(C(F)(F)F)nc3)c2)C(=O)OC(C)OC(=O)C(C)C)nc2c1NC(=O)[C@H](C)N2C (stereo partly drawn) [Compound 408, 1-((((1-((6-(trifluoromethyl)pyridin-3-yl)methyl)-1H-pyrazol-4-yl)methyl)((7S)-4,7,8-trimethyl-6-oxo-5,6,7,8-tetrahydropteridin-2-yl)carbamoyl)oxy)ethyl isobutyrate]"
